Laboratory results: patent US9833497B2, “Human originated EGF domain proteins and use of the same” (CHENGDU SOURCEBIO LIMITED-LIABILITY COMPANY, priority 2013, dated 2017)

Legend:
Format in all cases: cell-based
E. coli BL21 = test: MIC against Gram-negative bacteria: E. coli BL21; conditions: E. coli BL21; 10 h cultivation at 37° C.; 5×10^5 CFU/mL
How it was run: (§1)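 Two-fold serial dilutions of each purified human EGF domain protein, three replicate wells per level, were combined with bacteria at a final 5×10^5 CFU/mL in LB. Cultures were shaken at 175 rpm, 37° C. The MIC was taken as the minimum concentration preventing growth.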

Enterobacter cloacae = test: MIC against Gram-negative bacteria: Enterobacter cloacae; conditions: E. cloacae; 10 h cultivation at 37° C.; 5×10^5 CFU/mL
How it was run: as §1

Pseudomonas aeruginosa = test: MIC against Gram-negative bacteria: Pseudomonas aeruginosa; conditions: P. aeruginosa; 10 h cultivation at 37° C.; 5×10^5 CFU/mL
How it was run: as §1

Serratia marcescens = test: MIC against Gram-negative bacteria: Serratia marcescens; conditions: S. marcescens; 10 h cultivation at 37° C.; 5×10^5 CFU/mL
How it was run: as §1

Proteus vulgaris = test: MIC against Gram-negative bacteria: Proteus vulgaris; conditions: P. vulgaris; 10 h cultivation at 37° C.; 5×10^5 CFU/mL
How it was run: as §1

Klebsiella pneumonia = test: MIC against Gram-negative bacteria: Klebsiella pneumonia; conditions: K. pneumonia; 10 h cultivation at 37° C.; 5×10^5 CFU/mL
How it was run: as §1

Citrobacter diversus = test: MIC against Gram-negative bacteria: Citrobacter diversus; conditions: C. diversus; 10 h cultivation at 37° C.; 5×10^5 CFU/mL
How it was run: as §1

Moraxella catarrhalis = test: MIC against Gram-negative bacteria: Moraxella catarrhalis; conditions: M. catarrhalis; 10 h cultivation at 37° C.; 5×10^5 CFU/mL
How it was run: as §1

Proteus mirabilis = test: MIC against Gram-negative bacteria: Proteus mirabilis; conditions: P. mirabilis; 10 h cultivation at 37° C.; 5×10^5 CFU/mL
How it was run: as §1

Aeromonas hydrophila = test: MIC against Gram-negative bacteria: Aeromonas hydrophila; conditions: A. hydrophila; 10 h cultivation at 37° C.; 5×10^5 CFU/mL
How it was run: as §1

E. coli DH5α = test: Antibacterial activity: MIC and growth curve against E. coli DH5α in 96-well plate; conditions: minimal inhibitory concentration against E. coli DH5α; 96-well plate, 5×10^5 CFU/mL, 37° C., judged after 8 h
How it was run: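 Log-phase DH5α (OD600 about 0.5, 37° C, 185 rpm in LB) was pelleted, resuspended in fresh LB and seeded at 5×10^5 CFU/mL with recombinant protein at 50, 25 and 12.5 μg/mL (two-fold series), in triplicate. Plates were shaken at 175 rpm, 37° C, and OD600 was read every 30 min. MIC was the lowest concentration with no growth.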

| Substance | MIC (μg/mL) E. coli BL21 (E. coli BL21) | MIC (μg/mL) E. cloacae (Enterobacter cloacae) | MIC (μg/mL) P. aeruginosa (Pseudomonas aeruginosa) | MIC (μg/mL) S. marcescens (Serratia marcescens) | MIC (μg/mL) P. vulgaris (Proteus vulgaris) | MIC (μg/mL) K. pneumonia (Klebsiella pneumonia) | MIC (μg/mL) C. diversus (Citrobacter diversus) | MIC (μg/mL) M. catarrhalis (Moraxella catarrhalis) | MIC (μg/mL) P. mirabilis (Proteus mirabilis) | MIC (μg/mL) A. hydrophila (Aeromonas hydrophila) | MIC (E. coli DH5α) |
| --- | --- | --- | --- | --- | --- | --- | --- | --- | --- | --- | --- |
| PRT167 (TPNPCENDGVCTDIGGDFRCRCPAGFIDKTC; listed as Homo sapiens) | 50 µg/mL | 12.5 µg/mL | 12.5 µg/mL | 12.5 µg/mL | 25 µg/mL | 50 µg/mL | 25 µg/mL | 12.5 µg/mL | 25 µg/mL | 12.5 µg/mL | 12.5 µg/mL |
| PRT168 (CLPGCDEQHGFCDKPGECKCRVGWQGRYC; listed as Homo sapiens) | 25 µg/mL | 12.5 µg/mL | 12.5 µg/mL | 12.5 µg/mL | 50 µg/mL | 25 µg/mL | 12.5 µg/mL | 50 µg/mL | 12.5 µg/mL | 50 µg/mL | 25 µg/mL |
| PRT169 (CIRYPGCLHGTCQQPWQCNCQEGWGGLFC; listed as Homo sapiens) | 12.5 µg/mL | 50 µg/mL | 50 µg/mL | 12.5 µg/mL | 25 µg/mL | 100 µg/mL | 12.5 µg/mL | 25 µg/mL | 50 µg/mL | 25 µg/mL | 50 µg/mL |
| PRT170 (CTHHKPCKNGATCTNTGQGSYTCSCRPGYTGATC; listed as Homo sapiens) | 25 µg/mL | 50 µg/mL | 12.5 µg/mL | 12.5 µg/mL | 25 µg/mL | 25 µg/mL | 12.5 µg/mL | 25 µg/mL | 50 µg/mL | 25 µg/mL | 50 µg/mL |
| PRT171 (CDPSPCKNGGSCTDLENSYSCTCPPGFYGKIC; listed as Homo sapiens) | 50 µg/mL | 25 µg/mL | 25 µg/mL | 25 µg/mL | 50 µg/mL | 12.5 µg/mL | 25 µg/mL | 12.5 µg/mL | 25 µg/mL | 50 µg/mL | 25 µg/mL |
| PRT172 (CADGPCFNGGRCSDSPDGGYSCRCPVGYSGFNC; listed as Homo sapiens) | 25 µg/mL | 12.5 µg/mL | 50 µg/mL | 12.5 µg/mL | 12.5 µg/mL | 25 µg/mL | 12.5 µg/mL | 12.5 µg/mL | 12.5 µg/mL | 12.5 µg/mL | 12.5 µg/mL |
| PRT173 (CSSSPCSNGAKCVDLGDAYLCRCQAGFSGRHC; listed as Homo sapiens) | 50 µg/mL | 25 µg/mL | 12.5 µg/mL | 25 µg/mL | 12.5 µg/mL | 50 µg/mL | 25 µg/mL | 50 µg/mL | 25 µg/mL | 12.5 µg/mL | 12.5 µg/mL |
| PRT174 (CASSPCANGGTCRDGVNDFSCTCPPGYTGRNC; listed as Homo sapiens) | 12.5 µg/mL | 25 µg/mL | 25 µg/mL | 12.5 µg/mL | 50 µg/mL | 50 µg/mL | 25 µg/mL | 50 µg/mL | 12.5 µg/mL | 12.5 µg/mL | 50 µg/mL |
| PRT175 (CEHAPCHNGATCHERGHRYVCECARGYGGPNC; listed as Homo sapiens) | 12.5 µg/mL | 12.5 µg/mL | 12.5 µg/mL | 12.5 µg/mL | 25 µg/mL | 12.5 µg/mL | 12.5 µg/mL | 25 µg/mL | 12.5 µg/mL | 25 µg/mL | 12.5 µg/mL |
| PRT176 (APLVCRAGCSPEHGFCEQPGECRCLEGWTGPLCT; listed as Homo sapiens) | 12.5 µg/mL | 25 µg/mL | 25 µg/mL | 25 µg/mL | 12.5 µg/mL | 12.5 µg/mL | 25 µg/mL | 50 µg/mL | 25 µg/mL | 12.5 µg/mL | 25 µg/mL |
| PRT177 (GPGPCDGNPCANGGSCSETPRSFECTCPRGFYGLRCE; listed as Homo sapiens) | 25 µg/mL | 50 µg/mL | 12.5 µg/mL | 12.5 µg/mL | 25 µg/mL | 25 µg/mL | 12.5 µg/mL | 25 µg/mL | 50 µg/mL | 25 µg/mL | 50 µg/mL |
| PRT178 (SGVTCADGPCFNGGLCVGGADPDSAYICHCPPGFQGSNCE; listed as Homo sapiens) | 50 µg/mL | 50 µg/mL | 25 µg/mL | 25 µg/mL | 12.5 µg/mL | 12.5 µg/mL | 50 µg/mL | 12.5 µg/mL | 50 µg/mL | 12.5 µg/mL | 25 µg/mL |
| PRT179 (RVDRCSLQPCRNGGLCLDLGHALRCRCRAGFAGPRCE; listed as Homo sapiens) | 25 µg/mL | 50 µg/mL | 12.5 µg/mL | 12.5 µg/mL | 12.5 µg/mL | 25 µg/mL | 25 µg/mL | 12.5 µg/mL | 25 µg/mL | 12.5 µg/mL | 50 µg/mL |
| PRT180 (DLDDCAGRACANGGTCVEGGGAHRCSCALGFGGRDCR; listed as Homo sapiens) | 12.5 µg/mL | 50 µg/mL | 12.5 µg/mL | 12.5 µg/mL | 25 µg/mL | 12.5 µg/mL | 12.5 µg/mL | 25 µg/mL | 50 µg/mL | 25 µg/mL | 12.5 µg/mL |
| PRT181 (RADPCAARPCAHGGRCYAHFSGLVCACAPGYMGARCE; listed as Homo sapiens) | 50 µg/mL | 25 µg/mL | 25 µg/mL | 25 µg/mL | 50 µg/mL | 12.5 µg/mL | 25 µg/mL | 12.5 µg/mL | 25 µg/mL | 50 µg/mL | 25 µg/mL |
| PRT182 (QQPICLSGCHEQNGYCSKPAECLCRPGWQGRLCN; listed as Homo sapiens) | 12.5 µg/mL | 25 µg/mL | 25 µg/mL | 25 µg/mL | 12.5 µg/mL | 12.5 µg/mL | 25 µg/mL | 100 µg/mL | 25 µg/mL | 12.5 µg/mL | 12.5 µg/mL |
